According to patent publication US6875761B2 (Eisai Co., Ltd., priority 1997, dated 2005):
Structures can show the parent of a compound that is named as a salt.

How the values were obtained:
serotonin 2 receptor = molecular target: T1, serotonin 2 receptor (Rattus norvegicus, UniProt P14842); experiment: Binding test on [3H] ketanserin, cerebral cortex receptor fraction; set-up: species or system SD rats; conditions: 0.3 nM [3H] ketanserin, 37° C. 15 min, read-out: 5HT2
T1 construct: To the receptor fraction of the cerebral cortex were added a test compound and 0.3 nM of [^3H] ketanserin; from tissue; host or cells: rat cerebral cortex membrane fraction

serotonin 1A receptor = molecular target: T2, serotonin 1A receptor (Rattus norvegicus, UniProt P19327); experiment: Binding test on [3H] 8-hydroxy-dipropylaminotetralin, hippocampus receptor fraction; set-up: species or system SD rats; conditions: rat hippocampus receptor fraction, 0.5 nM [3H] 8-OH-DPAT, room temperature 30 min; read-out: 5HT1
T2 construct: To the receptor fraction of the hippocampus were added a test compound and 0.5 nM of [^3H]; 8-hydroxy-dipropylaminotetralin; from tissue; host or cells: rat hippocampus membrane fraction
T2 sequence (P19327 1-422): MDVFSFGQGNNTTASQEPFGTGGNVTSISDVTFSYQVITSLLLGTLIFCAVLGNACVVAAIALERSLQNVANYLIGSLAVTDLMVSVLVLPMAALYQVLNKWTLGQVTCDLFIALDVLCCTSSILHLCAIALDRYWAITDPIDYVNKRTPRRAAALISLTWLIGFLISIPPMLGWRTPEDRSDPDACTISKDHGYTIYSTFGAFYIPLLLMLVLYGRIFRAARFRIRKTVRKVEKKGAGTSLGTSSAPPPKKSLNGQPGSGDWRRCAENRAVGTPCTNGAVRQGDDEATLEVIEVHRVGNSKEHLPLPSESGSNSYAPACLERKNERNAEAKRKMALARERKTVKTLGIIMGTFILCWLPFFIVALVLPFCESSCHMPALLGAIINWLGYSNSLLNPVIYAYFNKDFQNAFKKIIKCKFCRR
Experimental: (1) Binding test on serotonin 1A, serotonin 2 and α1 adrenalin receptors
The following reagents were employed in this test. • 1) Serotonin binoxalate (5-HT binoxalate, mfd. by Sigma Chemical Co.). • 2) Methysergide maleate (mfd. by RBI).
As radioisotope-labeled compounds, use was made of the following reagents (mfd. by NEN). • 3) [^3H] 8-Hydroxy-dipropylaminotetralin (8-OH-DPAT). • 4) [^3H]
Methysergide maleate was dissolved in distilled water before using.
Use was made of SD rats aged 6 to 8 weeks.
The rats were sacrificed by dcapitation to extirpate the cerebra. The hippocampus and cortex were separated therefrom and employed in the binding tests respectively on the serotonin 1A receptor and the serotonin 2 receptor.
The hippocampus was mixed with 50 times (on the wet weight basis) as much as 0.32 M sucrose solution while the cortex was mixed with 10 times as much the same solution. Each mixture was homogenized by using a Teflon glass homogenizer and centrifuged as 1,000× g for 10 min. The supernatant thus obtained was further centrifuged at 20,000× g for 20 min. The obtained precipitate was re-suspended in 50 times (based on the initial wet weight; in the case of the hippocampus) or 10 times (in the case of the cortex) as much a 50 Tris hydrochloride (pH 7.4) and incubated at room temperature for 30 min. After centrifuging at 20,000× g for 20 min, the obtained precipitate was further suspended and centrifuged twice each in the same manner. The precipitate thus obtained was suspended in 100 times (based on the initial wet weight; in the case of the hippocampus) or 20 times (in the case of the cortex) as much a 50 mM Tris hydrochloride solution (pH 7.4) to thereby give a receptor fraction. This receptor fraction was stored at −80° C. until using.
To the receptor fraction of the hippocampus were added a test compound and 0.5 nM of [^3H] 8-hydroxy-dipropylaminotetralin and the resultant mixture was incubated at room temperature for 30 min. Next, it was filtered through a glass filter with the use of a cell harvester. After washing the glass filter with 50 mM Tris hydrochloride (pH 7.4), the radioactivity of the receptor was measured with a liquid scintillation counter. The binding detected in the presence of 10 μM of serotonin binoxalate was referred to as the nonspecific binding.
IC50 was calculated by the probit method, while Ki was determined in accordance with the following formula: Ki=IC50(1+c/Kd) wherein c represents the concentration of the radioisotope-labeled compound, and Kd represents the dissociation constant of the radioisotope-labeled compound with respect to the receptor determined by Scatchard's analysis.

T1 sequence (P14842 whole entry): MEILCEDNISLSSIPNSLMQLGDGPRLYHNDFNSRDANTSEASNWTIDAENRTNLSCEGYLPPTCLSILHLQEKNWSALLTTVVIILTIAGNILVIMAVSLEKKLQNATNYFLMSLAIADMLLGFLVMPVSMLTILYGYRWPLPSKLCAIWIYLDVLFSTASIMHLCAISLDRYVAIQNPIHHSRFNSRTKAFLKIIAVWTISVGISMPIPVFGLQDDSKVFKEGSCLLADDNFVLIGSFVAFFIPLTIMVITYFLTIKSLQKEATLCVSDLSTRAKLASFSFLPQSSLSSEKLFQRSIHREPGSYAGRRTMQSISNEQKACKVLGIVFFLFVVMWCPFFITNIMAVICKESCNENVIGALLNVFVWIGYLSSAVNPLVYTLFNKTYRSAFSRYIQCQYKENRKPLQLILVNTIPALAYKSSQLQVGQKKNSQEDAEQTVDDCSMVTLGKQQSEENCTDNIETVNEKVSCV

Structure (SMILES)	Ki (serotonin 2 receptor)	Ki (serotonin 1A receptor)
CCN1CCN(c2nc(-c3ccc(OC(F)(F)F)cc3)cc3ccccc23)CC1 [Example 339, 1-(4-ethylpiperazin-1-yl)-3-(4-trifluoromethoxyphenyl)isoquinoline dihydrochloride]	18.9 nM	214 nM
CCN1CCN(c2nc(-c3ccc(OCCO)c(OC)c3)cc3ccccc23)CC1 [Example 340, 1-(4-ethylpiperazin-1-yl)-3-[4-(2-hydroxyethoxy)-3-methoxyphenyl]isoquinoline dihydrochloride]	20.7 nM	26 nM
CCN1CCN(c2nc(-c3ccc(S(C)(=O)=O)cc3)cc3ccccc23)CC1 [Example 342, 1-(4-ethylpiperazin-1-yl)-3-(4-methylsulfonylphenyl)isoquinoline dihydrochloride]	14.9 nM	6.2 nM
CCN1CCN(c2nc(-c3ccc(OCC(O)COC)cc3)cc3ccccc23)CC1 (stereo not drawn) [Example 343, 1-(4-ethylpiperazin-1-yl)-3-[4-(2-hydroxy-3-methoxypropoxy)phenyl]isoquinoline dihydrochloride]	5.7 nM	35.7 nM
CCN1CCN(c2nc(-c3ccc(OC)nc3)cc3ccccc23)CC1 [Example 344, 1-(4-ethylpiperazin-1-yl)-3-(2-methoxypyridin-5-yl)isoquinoline]	35.9 nM	10.7 nM
CCN1CCN(c2nc(-c3ccc(C(C)(C)O)cc3)cc3ccccc23)CC1 [Example 345, 1-(4-ethylpiperazin-1-yl)-[4-(1-hydroxy-1-methylethyl)phenyl]isoquinoline]	1.4 nM	11.3 nM
CCN1CCN(c2nc(-c3ccc(C(=O)NCCO)cc3)cc3ccccc23)CC1 [Example 346, 1-(4-ethylpiperazin-1-yl)-3-{4-(N-(2-hydroxyethyl)carbamoyl]phenyl}isoquinoline dihydrochloride]	41.7 nM	31.8 nM
CCN1CCN(c2nc(-c3ccc(S(=O)(=O)NCCO)cc3)cc3ccccc23)CC1 [Example 347, 1-(4-ethylpiperazin-1-yl)-3-{4-[N-(2-hydroxyethyl)sulfamoyl]phenyl}isoquinoline dihydrochloride]	24.2 nM	8 nM
CCN1CCN(c2nc(-c3ccc(C(C)O)cc3)cc3ccccc23)CC1 (stereo not drawn) [Example 348, 1-(4-ethylpiperazin-1-yl)-3-[4-(1-hydroxyethyl)phenyl]isoquinoline dihydrochloride]	1.6 nM	11 nM
CCCS(=O)(=O)c1ccc(-c2cc3ccccc3c(N3CCN(CC)CC3)n2)cc1 [Example 349, 1-(4-ethylpiperazin-1-yl)-3-[4-propylsulfonyl)phenyl]isoquinoline dihydrochloride]	5 nM	3.2 nM
CCN1CCN(c2nc(-c3ccc(S(=O)(=O)CCCOC)cc3)cc3ccccc23)CC1 [Example 350, 1-(4-ethylpiperazin-1-yl)-3-{4-[(3-methoxypropyl)sulfonyl]phenyl}isoquinoline]	16.7 nM	2.6 nM
CCN1CCN(c2nc(-c3ccc(CCO)cc3)cc3ccccc23)CC1 [Example 351, 1-(4-ethylpiperazin-1-yl)-3-[4-(2-hydroxyethyl)phenyl]isoquinoline dihydrochloride]	6.4 nM	15.7 nM
CCN1CCN(c2nc(-c3ccc(S(=O)(=O)CCCO)cc3)cc3ccccc23)CC1 [Example 352, 1-(4-ethylpiperazin-1-yl)-3-[4-(3-hydroxypropyl)sulfonylphenyl]isoquinoline dihydrochloride]	54.6 nM	4 nM
CCCNS(=O)(=O)c1ccc(-c2cc3ccccc3c(N3CCN(CC)CC3)n2)cc1 [Example 353, 1-(4-ethylpiperazin-1-yl)-3-[4-(N-propylsulfamoyl)phenyl]isoquinoline dihydrochloride]	0.24 nM	1.1 nM
CCN1CCN(c2nc(-c3ccc(S(=O)(=O)NCCOC)cc3)cc3ccccc23)CC1 [Example 354, 1-(4-ethylpiperazin-1-yl)-3-{4-[N-(2-methoxyethyl)sulfamoyl]phenyl}isoquinoline dihydrochloride]	1.3 nM	3 nM
CCN1CCN(c2nc(-c3ccc(S(=O)(=O)CCCF)cc3)cc3ccccc23)CC1 [Example 355, 1-(4-ethylpiperazin-1-yl)-3-[4-(3-fluoropropyl)sulfonylphenyl]isoquinoline dihydrochloride]	4.9 nM	2.6 nM
CCN1CCN(c2nc(-c3ccc(S(=O)(=O)N4CCCC4)cc3)cc3ccccc23)CC1 [Example 356, 1-(4-ethylpiperazin-1-yl)-3-[4-(pyrrolidin-1-yl)sulfonylphenyl]isoquinoline dihydrochloride]	24.2 nM	2.1 nM

Structure (SMILES)	Ki (serotonin 2 receptor)	Ki (serotonin 1A receptor)
CCNS(=O)(=O)c1ccc(-c2cc3ccccc3c(N3CCN(CC)CC3)n2)cc1 [Example 357, 1-(4-ethylpiperazin-1-yl)-3-[4-(N-ethylsulfamoyl)phenyl]isoquinoline dihydrochloride]	0.58 nM	2.8 nM
CCCN(C)S(=O)(=O)c1ccc(-c2cc3ccccc3c(N3CCN(CC)CC3)n2)cc1 [Example 358, 1-(4-ethylpiperazin-1-yl)-3-[4-(N-methyl-N-propylsulfamoyl)phenyl]isoquinoline dihydrochloride]	19.1 nM	6.4 nM
CCN1CCN(c2nc(-c3ccc(S(=O)(=O)N(CC)CC)cc3)cc3ccccc23)CC1 [Example 359, 1-(4-ethylpiperazin-1-yl)-3-[4-(N,N-diethylsulfamoyl)phenyl]isoquinoline dihydrochloride]	3.2 nM	6.1 nM
CCC(C)NS(=O)(=O)c1ccc(-c2cc3ccccc3c(N3CCN(CC)CC3)n2)cc1 (stereo not drawn) [Example 360, 1-(4-ethylpiperazin-1-yl)-3-{4-[N-(1-methylpropyl)sulfamoyl]phenyl}isoquinoline dihydrochloride]	1.5 nM	2 nM
CCN1CCN(c2nc(-c3ccc(S(=O)(=O)NC)cc3)cc3ccccc23)CC1 [Example 361, 1-(4-ethylpiperazin-1-yl)-3-[4-(N-methylsulfamoyl)phenyl]isoquinoline dihydrochloride]	2.6 nM	3.5 nM
CCN1CCN(c2nc(-c3ccc(S(=O)(=O)N(C)C)cc3)cc3ccccc23)CC1 [Example 362, 1-(4-ethylpiperazin-1-yl)-3-[4-(N,N-dimethylsulfamoyl)phenyl]isoquinoline dihydrochloride]	24.1 nM	4.5 nM
CCN1CCN(c2nc(-c3ccc(S(=O)(=O)NC4CC4)cc3)cc3ccccc23)CC1 [Example 363, 1-(4-ethylpiperazin-1-yl)-3-[4-(N-cyclopropylsulfamoyl)phenyl]isoquinoline dihydrochloride]	0.61 nM	3.5 nM
CCNC(=O)c1ccc(-c2cc3ccccc3c(N3CCN(CC)CC3)n2)cc1 [Example 364, 1-(4-ethylpiperazin-1-yl)-3-[4-(N-ethylcarbamoyl)phenyl]isoquinoline dihydrochloride]	3.9 nM	21.7 nM
CCN1CCN(c2nc(-c3ccc(C(=O)NC)cc3)cc3ccccc23)CC1 [Example 365, 1-(4-ethylpiperazin-1-yl)-3-[4-(N-methylcarbamoyl)phenyl]isoquinoline dihydrochloride]	9.9 nM	26.2 nM
CCN1CCN(c2nc(-c3ccc(S(=O)(=O)CC)cc3)cc3ccccc23)CC1 [Example 366, 1-(4-ethylpiperazin-1-yl)-3-[4-(ethylsulfonyl)phenyl]isoquinoline dihydrochloride]	7.2 nM	3.8 nM
CCN1CCN(c2nc(-c3ccc(OCCOC)c(F)c3)cc3ccccc23)CC1 [Example 367, 1-(4-ethylpiperazin-1-yl)-3-(3-fluoro-4-methoxyethoxyphenyl)isoquinoline dihydrochloride]	3.3 nM	55.2 nM
CCN1CCN(c2nc(-c3cc(F)c(OCCOC)c(F)c3)cc3ccccc23)CC1 [Example 368, 1-(4-ethylpiperazin-1-yl)-3-(3,5-difluoro-4-methoxyethoxyphenyl)isoquinoline dihydrochloride]	9.1 nM	32 nM
CCN1CCN(c2nc(-c3ccc(OCCO)c(F)c3)cc3ccccc23)CC1 [Example 369, 1-(4-ethylpiperazin-1-yl)-3-[3-fluoro-4-(2-hydroxyethoxy)phenyl]isoquinoline dihydrochloride]	2.5 nM	28.2 nM
CCN1CCN(c2nc(-c3cc(F)c(OCCO)c(F)c3)cc3ccccc23)CC1 [Example 370, 1-(4-ethylpiperazin-1-yl)-3-[3,5-difluoro-4-(2-hydroxyethoxy)phenyl]isoquinoline]	3.4 nM	23.9 nM
CCN1CCN(c2nc(-c3cc(F)c(OCCF)c(F)c3)cc3ccccc23)CC1 [Example 371, 1-(4-ethylpiperazin-1-yl)-3-[3,5-difluoro-4-(2-fluoroethoxy)phenyl]isoquinoline dihydrochloride]	4.3 nM	41 nM
CCN1CCN(c2nc(Sc3ccccc3)cc3ccccc23)CC1 [Example 374, 1-(4-ethylpiperazin-1-yl)-3-(phenylthio)isoquinoline oxalate]	24.7 nM	44.5 nM
